Legend:
cRXFP3 [1] = assay: pGL3-NFAT-RE-luciferase reporter (calcium mobilization), HEK293 cells expressing cRXFP3; type: cell-based, chicken; conditions: rhRLN3 10^-12 to 10^-7 M, 6 h, N = 3
Procedure: (§1) According to our previously established methods ([Liu et al., 2019]; [Jiang et al., 2022]), two cell-based luciferase reporter systems (pGL3-CRE-luciferase and pGL3-NFAT-RE-luciferase) were used to verify whether cRLN3cm is biologically active and capable of activating cRXFP1 and cRXFP3. In brief, HEK293 cells transiently expressing each receptor (cRXFP1 and cRXFP3) were treated with 30 μl serum-free medium containing cRLN3cm or pcDNAcm (0.001–10 μl) for 6 h, and the receptor-activated cAMP/PKA pathways and calcium mobilization were then monitored by pGL3-CRE-luciferase and pGL3-NFAT-RE-luciferase reporter systems, respectively. HEK293 cells expressing empty pcDNA3.1 (+) were used as a negative control.
(§2) To compare the functional difference between chicken RLN3 and human RLN3, recombinant human RLN3 (rhRLN3, 10^–12 to 10^–7 M, 6 h) was used to treat HEK293 cells expressing cRXFP1 or cRXFP3, respectively, and its potency in activating cRXFP1 and cRXFP3 was also evaluated.
(§3) To verify whether chicken RLN3 can activate RXFP1 or RXFP3, a cRLN3-conditioned medium (cRLN3cm, 0.001–10 μl) was used to treat HEK293 cells expressing cRXFP1/cRXFP3. Receptor activation was examined by pGL3-CRE-luciferase and pGL3-NFAT-RE-luciferase reporter systems established in our previous studies ([Liu et al., 2019]).

cRXFP1 [2] = assay: pGL3-CRE-luciferase reporter (cAMP/PKA), HEK293 cells expressing cRXFP1; type: cell-based, chicken
Procedure: as §1, §2, §3

cRXFP3 [3] = assay: pGL3-CRE-luciferase reporter, inhibition of forskolin-stimulated luciferase activity, HEK293 cells expressing cRXFP3; type: cell-based, chicken; conditions: rhRLN3 10^-12 to 10^-7 M, 6 h, HEK293 cells transiently expressing cRXFP3, N = 3, read-out: EC50, cAMP/PKA, cRXFP3 (inhibition of forskolin-stimulated luciferase activity)
Procedure: as §1, §2, §3

[4] = system: HEK293 cells transfected with an empty pcDNA3.1 (+) vector; assay: Luciferase reporter control, HEK293 cells transfected with empty pcDNA3.1 (+) vector; type: cell-based; conditions: rhRLN3 10^-12 to 10^-7 M, 6 h; pGL3-CRE and pGL3-NFAT-RE reporters; N = 3
Excerpt: According to our previously established methods ([Liu et al., 2019]; [Jiang et al., 2022]), two cell-based luciferase reporter systems (pGL3-CRE-luciferase and pGL3-NFAT-RE-luciferase) were used to verify whether cRLN3cm is biologically active and capable of activating cRXFP1 and cRXFP3. […] HEK293 cells expressing empty pcDNA3.1 (+) were used as a negative control.
To explore whether pituitary cells can secrete RLN3, we collected the extracellular medium of adult female chicken pituitary cells to detect its activation potential. According to the method provided in the previous article ([Sun et al., 2021]; [Liu et al., 2022]), the anterior pituitaries from a laying hen were isolated and further cut into small pieces with clean scissors. After washing with PBS, the cut pieces were then digested with 0.25% trypsin at 37°C for 30 min. The dispersed pituitary cells were cultured in Medium 199 supplemented with 10% fetal bovine serum in a Corning Cell BIND 48-well plate (Corning, Tewksbury, MA) at 37°C with 5% CO2. […] The HEK293 cells expressing cRXFP1 were treated with a 60 μl serum-free medium containing chicken pituitary cell extracellular medium (2 × 10^−3μl to 2 × 10^1 μl) for 6 h, and then receptor-activated calcium mobilization was monitored by pGL3-NFAT-RE-luciferase reporter systems. […]

cRXFP1 [5] = assay: pGL3-NFAT-RE-luciferase reporter (calcium mobilization), HEK293 cells expressing cRXFP1; type: cell-based, chicken; conditions: rhRLN3 10^-12 to 10^-7 M, 6 h, HEK293 cells transiently expressing cRXFP1, N = 3, read-out: EC50, Ca^2+, cRXFP1
Procedure: as §1, §2, §3

In the case of recombinant human relaxin 3 [rhRLN3], the “stimulation of luciferase activity (Ca^2+), cRXFP3” value (cRXFP3 [1]) is reported as “not cRXFP3”, the “potency on cRXFP1 compared with cRXFP3 (in words)” value (cRXFP1 [2]; HEK293 cells expressing cRXFP1 or cRXFP3) is reported as “higher potency for cRXFP1 activation” and the EC50 (cRXFP1 [2]; rhRLN3 10^-12 to 10^-7 M, 6 h, HEK293 cells transiently expressing cRXFP1, mean of three replicates (N = 3)) is reported as 0.00268 µM. For the same substance, the EC50 (cRXFP3 [3]) was 0.0415 µM, the “change of luciferase activity in empty-vector cells” value [4] was “did not change the luciferase activity” and the EC50 (cRXFP1 [5]) was 0.0211 µM.
